Assay results reported in patent US8586547B2, “CDC45L peptides and vaccines including the same” (Oncotherapy Science, Inc., priority 2009, dated 2013).
Read-outs that look alike come from different tables or passages of the source. Where a SMILES comes first, the peptide text is derived from it.

Experiments:
[1] = system: Lu99 cells (CDC45L+, HLA-A24+); test: 51Cr-release assay against Lu99 lung cancer cells; assay type: cell-based, human
Procedure: (§1) To knock down the expression of CDC45L in lung cancer cells, CDC45L small interfering (si) RNAs (human Cdc45 siRNA, sc-35044: a pool of three target-specific 20-25 nt siRNAs; Santa Cruz) were added at a final concentration of 150 nM to 40-60% confluent cells. Lipofectamine™ 2000 (Invitrogen) was used to transfect the siRNAs into cells, according to the manufacturer's instructions. GFP siRNAs were used as an irrelevant control. The treated cells were washed once with PBS, and adherent cells were collected at 72 h after transfection and used as target cells for the ^51Cr-release assay. To investigate the ability of siRNA to suppress CDC45L expression, western blot analysis was performed as described previously (Nakatsura T et al., Biochem Biophys Res Commun 2003; 306:16-25). Cancer cells were washed once with PBS at 48 h after transfection, and adherent cells were collected and lysed to analyze the expression levels of CDC45L for comparison with those of negative control cells. Beta-actin was used as the internal control. Rabbit polyclonal antibody reactive to CDC45L (sc-20685, Santa Cruz Biotechnology) was used as the primary antibody.

[2] = system: A549 cells (CDC45L+, HLA-A24-); assay type: cell-based, human
Procedure: (§2) The CTLs were co-cultured with cancer cells or peptide-pulsed C1R-A2402 and T2 cells as target cells (5×10^3/well) at the indicated effector-to-target ratio, and a standard ^51Cr-release assay was performed as described previously (Yokomine K et al., Int J Cancer 2009; 126:2153-63, Monji M et al., Clin Cancer Res 2004; 10:6047-57). The blocking of HLA-class I by anti-human HLA class I mAb, W6/32 (IgG2a, Santa Cruz Biotechnology), or HLA-class II by anti-human HLA-DR mAb (IgG2a, BD Biosciences), was performed as described previously (Komori H et al., Clin Cancer Res 2006; 12:2689-97, Makita M et al., Clin Cancer Res 2002; 8:2626-31).

[3] = system: C1R-A2402 cells pulsed with CDC45L derived peptides
Procedure: The DCs were pulsed with 20 micro-g/mL of the candidate peptides in the presence of 4 micro-g/mL beta 2-microglobulin (Sigma-Aldrich) for 2 h at 37 degrees C. in AIM-V (Invitrogen) supplemented with 2% heat-inactivated autologous plasma. The cells were then irradiated (40 Gy) and incubated with the isolated CD8^+ T cells as described previously (Imai K et al., Clin Cancer Res 2008; 14:6487-95, Harao M et al., Int J Cancer 2008; 123:2616-25). Two additional stimulations with peptide-loaded autologous PHA-blasts were performed on days 7 and 14. The PHA-blasts were generated as described previously (Inoue M et al., Immunol Lett 2009; 126:67-72), and these PHA-blasts (5×10^5) were pulsed with 20 micro-g/mL peptides for 3 h, irradiated (100 Gy) and cultured with the 2×10^6 CD8^+ T cells in the presence of 10 ng/mL human recombinant IL-7 (Wako, Osaka, Japan). After 2 days, the cultures were supplemented with 20 IU/mL human recombinant IL-2 (PeproTec, Inc.).
Six days after the last stimulation, the antigen-specific responses of the induced CTLs were investigated. Two additional weekly stimulations with peptide-loaded autologous PHA-blasts were carried out on day 7 and 14. Autologous CD 14^− CD8^− cells enriched with CD4^+ T cells were cultured with PHA (2 micro-g/mL) and human recombinant IL-2 (100 IU/mL) for 2 days, and cells were washed with PBS and cultured with human recombinant IL-2 (100 IU/mL) for additional three days. These PHA-blasts (5×10^5) were pulsed with 50 micro-g/mL peptides for 2 hours at 37 degrees C. in AIM-V (Invitrogen) supplemented with 2% heat-inactivated autologous plasma. The cells were then irradiated (100 Gy) and incubated with the 2×10^6 CD8^+ T cells. These cultures were set up in 24-well plates using the medium supplemented with 5 ng/mL human recombinant IL-7, IL-2, and IL-15. Six days after the last stimulation, the antigen-specific responses of the induced CTLs were investigated by an IFN-gamma ELISPOT assay, CD107a mobilization assay and ^51Cr release assay as described previously (Komori H et al. Clin Cancer Res 2006; 12: 2689-97) and below.
The frequency of cells producing interferon (IFN)-gamma per 1×10^5 CTLs upon stimulation with Lu99 cells (1×10^4/well) or peptide-pulsed C1R-A2402 and T2 cells (1×10^4/well) was analyzed by an ELISPOT assay (Human IFN-gamma ELISPOT kit, BD Biosciences) as previously described (Komori H et al., Clin Cancer Res 2006; 12:2689-97, Bourgault V I et al., Cancer Res 2004; 64:8761-6). The CTLs were co-cultured with cancer cells or peptide-pulsed C1R-A2402 and T2 cells as target cells (5×10^3/well) at the indicated effector-to-target ratio, and a standard ^51Cr-release assay was performed as described previously (Yokomine K et al., Int J Cancer 2009; 126:2153-63, Monji M et al., Clin Cancer Res 2004; 10:6047-57). The blocking of HLA-class I by anti-human HLA class I mAb, W6/32 (IgG2a, Santa Cruz Biotechnology), or HLA-class II by anti-human HLA-DR mAb (IgG2a, BD Biosciences), was performed as described previously (Komori H et al., Clin Cancer Res 2006; 12:2689-97, Makita M et al., Clin Cancer Res 2002; 8:2626-31).

[4] = Immunization of BALB/c mice with peptides emulsified in incomplete Freund adjuvant; assay type: in vivo; settings: long-term observation period, unpublished data
[5] = system: EBC-1 cells (CDC45L+, HLA-A24+); assay type: cell-based, human
Procedure: as §1

[6] = system: Panc1 cells (CDC45L+, HLA-A2+, HLA-A24-); test: 51Cr-release assay against Panc1 cells; settings: not inhibited by control anti-HLA-class II mAb
Procedure: as §2

[7] = system: T2 cells pulsed with the peptide; settings: CTL lines from HLA-A2 positive healthy donor; not against HIV-A2 peptide-loaded T2 cells
Procedure: PBMCs were isolated from HLA-A24 or HLA-A2 positive Japanese healthy donors and lung cancer patients, and the peripheral monocyte-derived dendritic cells (DCs) were generated as described previously (Harao M et al., Int J Cancer 2008; 123:2616-25, Naito K et al., Int J Oncol 2006; 28:1481-9). The DCs were pulsed with 20 micro-g/mL of the candidate peptides in the presence of 4 micro-g/mL beta 2-microglobulin (Sigma-Aldrich) for 2 h at 37 degrees C. in AIM-V (Invitrogen) supplemented with 2% heat-inactivated autologous plasma. The cells were then irradiated (40 Gy) and incubated with the isolated CD8^+ T cells as described previously (Imai K et al., Clin Cancer Res 2008; 14:6487-95, Harao M et al., Int J Cancer 2008; 123:2616-25). Two additional stimulations with peptide-loaded autologous PHA-blasts were performed on days 7 and 14. […]
The frequency of cells producing interferon (IFN)-gamma per 1×10^5 CTLs upon stimulation with Lu99 cells (1×10^4/well) or peptide-pulsed C1R-A2402 and T2 cells (1×10^4/well) was analyzed by an ELISPOT assay (Human IFN-gamma ELISPOT kit, BD Biosciences) as previously described (Komori H et al., Clin Cancer Res 2006; 12:2689-97, Bourgault V I et al., Cancer Res 2004; 64:8761-6). […]

CC[C@H](C)[C@H](NC(=O)[C@H](CCC(N)=O)NC(=O)[C@@H](NC(=O)[C@H](CC(=O)O)NC(=O)[C@H](CC(N)=O)NC(=O)[C@H](Cc1ccc(O)cc1)NC(=O)[C@@H](N)C(C)C)[C@@H](C)O)C(=O)N[C@@H](CCCCN)C(=O)N[C@@H](CC(C)C)C(=O)O [CDC45L-A24-9-109-2] (H-VYNDTQIKL-OH)
cytotoxicity of peptide-induced CTLs against Lu99 cells [1]: exhibited cytotoxicity
cytotoxicity of peptide-induced CTLs against Lu99 cells transfected with CDC45L specific siRNAs [1]: not against
cytotoxicity of peptide-induced CTLs against A549 cells [2]: not against
cytotoxic activity of CTL lines against peptide-pulsed C1R-A2402 cells [3]: exhibited cytotoxic activity
pathological changes, such as lymphocyte infiltration or tissue destruction [4]: did not exhibit pathological changes
signs of autoimmune diseases, such as weight loss, diarrhea and skin abnormalities [4]: no signs of autoimmune diseases

CC(C)C[C@H](NC(=O)[C@H](CCCCN)NC(=O)[C@H](Cc1ccccc1)NC(=O)[C@H](CCCNC(=N)N)NC(=O)[C@H](C)NC(=O)[C@H](C)NC(=O)[C@@H](NC(=O)[C@H](Cc1ccc(O)cc1)NC(=O)[C@@H](N)CO)[C@@H](C)O)C(=O)O [CDC45L-A24-9-294-3] (H-SYTAARFKL-OH)
cytotoxic activity of CTL lines against peptide-pulsed C1R-A2402 cells [3]: exhibited cytotoxic activity
pathological changes, such as lymphocyte infiltration or tissue destruction [4]: did not exhibit pathological changes
signs of autoimmune diseases, such as weight loss, diarrhea and skin abnormalities [4]: no signs of autoimmune diseases
cytotoxicity of peptide-induced CTLs against EBC-1 cells [5]: exhibited cytotoxicity

CC(C)C[C@H](NC(=O)[C@H](Cc1ccccc1)NC(=O)[C@@H](N)CCCCN)C(=O)N[C@@H](C)C(=O)N[C@@H](CO)C(=O)N[C@@H](CC(=O)O)C(=O)N[C@H](C(=O)N[C@H](C(=O)N[C@@H](Cc1ccccc1)C(=O)O)C(C)C)C(C)C [CDC45L-A24-9-370-7] (H-KFLASDVVF-OH)
cytotoxic activity of CTL lines against peptide-pulsed C1R-A2402 cells [3]: exhibited cytotoxic activity
cytotoxicity of peptide-induced CTLs against EBC-1 cells [5]: exhibited cytotoxicity

CC[C@H](C)[C@H](NC(=O)[C@H](CC(C)C)NC(=O)[C@H](C)NC(=O)[C@H](CC(=O)O)NC(=O)[C@H](CC(C)C)NC(=O)[C@H](Cc1ccccc1)NC(=O)[C@@H](N)CCCCN)C(=O)N[C@@H](CO)C(=O)N[C@@H](CC(C)C)C(=O)O [CDC45L-A24-9-556-4] (H-KFLDALISL-OH)
cytotoxicity of peptide-induced CTLs against Lu99 cells transfected with CDC45L specific siRNAs ([1]; CDC45L-, HLA-A24+ target cells): not against
cytotoxicity of peptide-induced CTLs against Lu99 cells ([1]; Lu99 cells and Lu99 cells transfected with control GFP siRNAs): exhibited cytotoxicity
cytotoxic activity of CTL lines against peptide-pulsed C1R-A2402 cells [3]: exhibited cytotoxic activity
cytotoxicity of CTL lines against C1R-A2402 cells loaded with the peptide [3]: not against
cytotoxicity against Panc1 cells in presence of blocking mAb against HLA-class I (W6/32) [6]: significantly inhibited
cytotoxicity of CTL lines against peptide-pulsed T2 cells [7]: exhibited cytotoxicity

CC[C@H](C)[C@H](NC(=O)[C@H](CC(C)C)NC(=O)[C@H](C)NC(=O)[C@H](CC(=O)O)NC(=O)[C@H](CC(C)C)NC(=O)[C@H](Cc1ccccc1)NC(=O)[C@@H](N)CCCCN)C(=O)N[C@@H](CO)C(=O)N[C@@H](CC(C)C)C(=O)N[C@@H](CC(C)C)C(=O)O [CDC45L-A24-10-556-12] (H-KFLDALISLL-OH)
cytotoxic activity of CTL lines against peptide-pulsed C1R-A2402 cells [3]: exhibited cytotoxic activity
